The subject of the test is P. falciparum 3D7 growth, pLDH absorbance. Briefly: P. falciparum 3D7 growth inhibition, dose response, strain 3D7 (AID 2305).

“And” between values parts separate entries of the source, which are not always exact repeats. Equal entries are not always repeated.

`Fc1cccc(Cn2ncc3cc(Nc4ncnc5sc(C#Cc6ncc[nH]6)cc45)ccc32)c1` displayed a half-maximal inhibitory concentration (IC50) of 1800 nM.

Compound `CC(Cc1ccc(NC(=O)CCCc2ccccc2)cc1)NCCc1cccc(Cl)c1` (centres undefined) came in with an IC50 of 950 nM.

With `COc1cc2nc(NCCCN3CCCCC3)nc(NCc3ccccc3)c2cc1OC`, the IC50 amounted to 1000 nM.

For `CCC1(C)CC(CCNCc2ccccc2O)(c2ccc(F)cc2)CCO1` (centres undefined), the IC50 was 880 nM.

Regarding `CCN(CC)CCN(Cc1ccc(-c2ccc(C(F)(F)F)cc2)cc1)C(=O)Cn1c(CCc2ccc(F)c(F)c2F)nc(=O)c2cccnc21`, the IC50 was determined as 1130 nM.

In turn, `O=C(/C=C/c1ccc(Cl)c(Cl)c1)N(Cc1ccccc1)C1CCC(CN2CCC(c3c[nH]c4ccccc34)CC2)CC1` (centres undefined) gave an IC50 of 210 nM.

Compound `Cc1cc(-c2ccc(CNCCc3cccs3)cc2)ccc1S(=O)(=O)NCc1ccccc1` registered a half-maximal inhibitory concentration (IC50) of 1140 nM.

Regarding `Cc1cc(O)c(-c2cc(C(=O)Nc3cccnc3)[nH]n2)cc1C`, the half-inhibitory concentration (IC50) turned out to be 770 nM.

`Cc1ccccc1C1CCN(C2CCC(NC(=O)/C=C/c3cccc(Cl)c3Cl)CC2)CC1` (centres undefined) came in with a concentration for half-maximal inhibition (IC50) of 1030 nM.

Regarding `O=C(NCCCCCN1CCC(c2ccc(O)cc2)CC1)c1ccc(-c2ccccc2)cc1`, the concentration for half-maximal inhibition (IC50) came out at 930 nM.

Turning to `N#Cc1ccc2c(c1)CCN(CCC1CCC(NC(=O)/C=C/c3c[nH]c4ccc(F)cc34)CC1)CC2` (centres undefined), the IC50 was found to be 690 nM.

`CCC(C)NC(=O)Nc1ccc(-c2cccc(-c3nc4ccc(C(F)(F)F)cc4[nH]3)c2)cc1` (centres undefined) displayed an IC50 of 620 nM.

In turn, `COc1ccc(CN2CCCC(C(=O)c3ccc(C(F)(F)F)cc3)C2)c(O)c1` (centres undefined) gave an IC50 of 850 nM.

In turn, `CC(C)(C)c1ccc(NC(=O)c2cccc(CN3CCCN(Cc4ccc(F)cc4)CC3)c2)cc1` had a 50% inhibitory concentration (IC50) of 990 nM.

In the case of `CC[C@H](C)CNC(=O)c1cncc(-c2cccc(CNCCCc3ccccc3)c2)c1`, the IC50 worked out at 1170 nM.

In the case of `COc1ccc2nc3cc(Cl)ccc3c(NCCO)c2c1`, the IC50 is 800 nM.

With `COc1cc(Nc2ccnc3ccc(C(C)(C)C)cc23)cc(OC)c1OC`, the half-maximal inhibitory concentration (IC50) was found to be 610 nM.

Take `CCN(CCCN1CCCCC1)c1cc(C)nc(Nc2ccc(C)c(Cl)c2)n1`: the IC50 is 210 nM.

As for `O=C(O[C@@H]1CN[C@H](C#Cc2cc3c(Nc4ccc5c(cnn5Cc5ccccc5)c4)ncnc3s2)C1)N1CCCC1`, the IC50 is 420 nM.

`Cc1ccc(O)cc1Nc1ccnc2cc(-c3ccccc3)ccc12` registered a 50% inhibitory concentration (IC50) of 1070 nM.

`CN(C)Cc1cccc(-c2cnc(N)c(-c3nc4ccc(S(C)(=O)=O)cc4[nH]3)c2)c1`: the IC50 was found to be 890 nM.

Take `CC(=O)Nc1cccc(CN(Cc2ccc(-c3ccc(CNCc4cccnc4)cn3)cc2)C(=O)Cc2cccnc2)c1`: the IC50 amounted to 820 nM.

As for `CC(=O)CCc1ccc(OCCN(Cc2ccccc2C(F)(F)F)c2ccc(C#N)c(C(F)(F)F)c2)cc1`, the half-maximal inhibitory concentration (IC50) was 270 nM.

`Cc1cc(Nc2cccc(C(F)(F)F)c2)nc2ccc(NC(=O)c3ccc(=O)[nH]c3)cc12` had an IC50 of 490 nM.

`Cn1c(=N)n(CC(=O)OCc2ccc(OCc3ccccc3)cc2)c2ccccc21` came in with an IC50 of 80 nM.

For `COc1ccc2nc(C)cc(NN=Cc3ccc(F)cc3)c2c1`, the IC50 turned out to be 190 nM.

Regarding `Cn1cc(-c2ccnc3[nH]c(-c4cccc(CNC5CCC(O)CC5)c4)cc23)cn1` (centres undefined), the IC50 is 900 nM.

In turn, `Cc1cccc2[nH]c(-c3ccc(-c4ccc(CN5CCCCC5)cc4)cc3)nc12` had a half-inhibitory concentration (IC50) of 590 nM.

`Oc1ccc2[nH]c(-c3cccs3)nc2c1CN1CCC(N2CCCC2)CC1` had an IC50 of 640 nM.

Compound `CCN(CC)CCCCNc1cc(-c2[nH]c(C(C)(C)C)nc2-c2ccc3cc(OC)ccc3c2)ccn1` had an IC50 of 530 nM.

Regarding `COc1cc2nc(N3CCC(CNC(=O)/C=C/c4cccc(C)c4)CC3)nc(N)c2cc1OC`, the 50% inhibitory concentration (IC50) came to 680 nM.

For the compound `CCN(c1ccc(O)c(CN2CCCCC2)c1)c1ccc([N+](=O)[O-])cn1`, the IC50 was determined as 890 nM.

For the compound `COc1ccc(-c2cnc(N)c(-c3ccc(C(N)=O)cc3)c2)cc1OC`, the half-inhibitory concentration (IC50) was found to be 900 nM.

Turning to `OCCNc1nc(Nc2ccc(Cl)cc2)nc2ccccc12`, the IC50 was determined as 710 nM.

As for `O=C(Nc1cccc(C(F)(F)F)c1)c1ccc(S(=O)(=O)NCC2CCN(CC3CCCCC3)CC2)cc1`, the IC50 is 320 nM.

For `COc1ccnc(NCCCNCc2cn(S(=O)(=O)c3ccccc3)c3ccccc23)c1`, the 50% inhibitory concentration (IC50) stood at 790 nM.

Take `CCC(=O)Nc1nnc(Cc2ccc(OC)c(OC)c2)s1`: the IC50 came to 910 nM.

In turn, `c1ccc(-c2ccc(-c3csc(Nc4ccncc4)n3)cc2)cc1` yielded an IC50 of 1010 nM.

In turn, `O=C(Nc1cc(Cl)cc(Cl)c1)c1cnn(-c2ccc(F)cc2)c1C1CCNCC1` showed an IC50 of 850 nM.

With `O=C(Nc1ccccc1C(F)(F)F)NC1CCC(CN2CCC(c3c[nH]c4ccccc34)CC2)CC1` (centres undefined), the IC50 was 950 nM and 780 nM.

Consider `O=C(Nc1cccnc1)c1cc(-c2cccnc2)nc2ccc(Cl)cc12`, for which the IC50 turned out to be 1060 nM.

For `CCCCCCNC(=O)c1nn(CCN2CCC(N3CCCC3)CC2)cc1-c1ccc(Cl)c(Cl)c1`, the IC50 stood at 730 nM.

On to `Cc1cccc2[nH]c(-c3ccc(-c4ccc(CN5CCOCC5)cc4)cc3)nc12`, for which the IC50 was found to be 820 nM.

The compound `COc1cc(OC)cc(C(=O)Nc2ccc(Nc3nc(C)cc(N(C)C)n3)cc2)c1` came in with an IC50 of 650 nM.

In general, IC50 refers to the concentration that gives 50% inhibition.

These data come from PubChem BioAssay AID2305 (GlaxoSmithKline (GSK), 2010).
